From US20100249238A1, “PHARMACEUTICAL COMPOSITIONS COMPRISING SEMICARBAZONES AND THIOSEMICARBAZONES AND METHOD FOR TREATING INFLAMMATORY, PAINFUL AND FEBRILE CONDITIONS AND PREVENTING SIGNS AND SYMPTOMS OF INFLAMMATION” (priority 2007, published 2010)
Like-named read-outs stand apart in the source and are kept apart here. Marks after values point to notes of the source that are not given here.

Experiments:
[1] = test system: thermal allodynia induced by carrageenan; test: thermal allodynia induced by carrageenan in rats (Hargreaves apparatus); assay type: in vivo; settings: 50 mg/kg i.p. -30 min, 100 or 200 mg/kg oral -60 min
Experimental: (§1) In the model of thermal allodynia, the latency for paw removal after application of a thermal stimulus is assessed in the Hargreaves apparatus (model 7370, Ugo Basile, Italy). In the model of mechanical allodynia, the frequency of paw withdrawal to a series of ten touches with a nylon filament to the plantar surface of the right hind paw is determined. Dimethyl sulfoxide (DMSO) 25%+Tween 80 10% in saline was the vehicle used for intraperitoneal administration and carboxymethylcellulose 0.5%, a pharmaceutically acceptable excipient, was used for oral administration. Thirty or 60 min after intraperitoneal or oral administration, respectively, carrageenan (1%, 50 μl, suspended in saline) was injected into the plantar surface of the right hindpaw and the latency for paw removal after application of a thermal stimulus or the frequency of paw withdrawal to the mechanical stimulus was evaluated as described.

[2] = test system: fibrovascular tissue formation induced by cotton; test: fibrovascular tissue formation induced by subcutaneous cotton implant; assay type: in vivo, mice; settings: 200 mg/kg per day, per os, 7 days; cotton pellet
Experimental: In the model of fibrovascular tissue formation, a cotton pellet (10 mg) is subcutaneously implanted in the back of mice. After seven days, the mice are euthanized and the cotton pellet involved plus the surrounding fibrovascular tissue is removed and its mass determined. Carboxymethylcellulose 0.5%, a pharmaceutically acceptable excipient, was used for oral administration. BS (200 mg/kg·day, oral) was administered during seven days. Twenty-four hours after the last administration, the animals were euthanised and the mass of the cotton pellet plus the surrounding fibrovascular tissue was determined as described.

rats = test: oral acute toxicity, OECD 420 fixed-dose procedure; assay type: in vivo
Experimental: (§2) Toxicological studies were based on established protocols (OECD Test Guidelines) internationally recognized as a reference standard tool for chemical tests.
Only one dose of substances (300 mg/kg or 2000 mg/kg) was administered orally in rats. A careful observation of the rats was made 30 minutes later and repeated hourly up to 12 h. […] After that, the animals were euthanised and submitted to macroscopic and microscopic necropsy.
(§3) Laboratory analyses for acute (macroscopic and microscopic analyses) and subacute (macroscopic and microscopic analyses, biochemical and hematologic analysis) toxicity tests were carried out.

[3] = oral subacute toxicity, OECD 407 repeated dose 28 days, body weight; assay type: in vivo, rats; settings: for Final body mass / Initial body mass: BS, mean ± sem
Experimental: as §2
The OECD 407 guideline—Repeated-dose Procedure for Assessing Oral Subacute Toxicity (OECD, 1995) was used. The test substance was administered orally daily (from 11:00 am to 1:00 pm) during 28 days. The animals were observed daily during the whole period. Doses of 100, 300, 500 mg/kg for BS were used.
as §3

motor activity = motor activity of mice in a rotarod; assay type: in vivo; settings: Swiss male mice; 10, 25 or 50 mg/kg intraperitoneal (30 min) or 100 or 200 mg/kg oral (60 min)
Experimental: The effect of BS on motor activity of Swiss male mice (20-30 g) was evaluated in order to investigate whether inhibition of nociceptive behavior in animals treated with BS would be a result of a central depressive effect. Their motor activity was evaluated in a rotarod. A day before the experiment, the mice were trained in the apparatus. During the experiment, they were put in a rotarod (14 rpm) and the time they stayed in the apparatus was determined. One minute was the cut-off time. After basal measurements, the animals were treated with BS (10, 25 or 50 mg/kg, intraperitoneal or 100 or 200 mg/kg, oral). Dimethyl sulfoxide (DMSO) 25%+Tween 80 10% in saline was the vehicle used for intraperitoneal administration and carboxymethylcellulose 0.5%, a pharmaceutically acceptable excipient, was used for oral administration. Thirty or 60 min after intraperitoneal or oral administration, respectively, the animals were evaluated again in the rotarod apparatus.

[4] = test system: paw edema induced by carrageenan; test: paw edema induced by carrageenan in rats; assay type: in vivo; settings: 50 mg/kg i.p. -30 min or 200 mg/kg oral -60 min
Experimental: The paw edema was assessed using a pletismometer (model 7140, Ugo Basile, Italy). The basal paw volume was determined before any treatment and the edema was induced by intraplantar injection of carrageenan into the right hindpaw (1%, 50 μl, suspended in saline). Dimethyl sulfoxide (DMSO) 25%+Tween 80 10% in saline was the vehicle used for intraperitoneal administration and carboxymethylcellulose 0.5%, a pharmaceutically acceptable excipient, was used for oral administration. Thirty or 60 min after intraperitoneal or oral administration, respectively, carrageenan (1%, 50 μl, suspended in saline) was injected and the paw edema was evaluated as described.

[5] = test system: mechanical allodynia induced by carrageenan; test: mechanical allodynia induced by carrageenan in rats (nylon filament); assay type: in vivo; settings: 50 mg/kg i.p. -30 min, 100 or 200 mg/kg oral -60 min
Experimental: as §1

[6] = test system: cell migration induced by carrageenan; test: cell migration induced by intraperitoneal injection of carrageenan in rats; assay type: in vivo; settings: 200 mg/kg oral -60 min
Experimental: In this model, carrageenan (500 μg, 1 ml, suspended in saline) is injected into the peritoneal cavity of rats. After three hours, the animals are euthanized and 10 ml phosphate buffer are injected into the peritoneal cavity. The peritoneal lavage is removed and the centrifuged. The supernatant is removed and the pellet is suspended in a 2 ml of phosphate buffer. An aliquot of 20 μl is added to a 400 μl Turk's solution. The number of cells is determined by microscopy.
Carboxymethylcellulose 0.5%, a pharmaceutically acceptable excipient, was used for oral administration. BS (200 mg/kg, oral, −60 min) inhibited cell migration induced by carrageenan.

[7] = test system: nociceptive response induced by formaldehyde; test: nociceptive response induced by formaldehyde in mice; assay type: in vivo
Experimental: In the nociceptive response induced by formaldehyde (0.92%, 20 μL), the inflammatory stimulus is injected subcutaneously into the dorsum of the right hind paw of male Swiss mice. The time the animal spent licking its injected paw was determined from 0 to 5 min (first phase) and from 15 to 30 min (second phase) after formaldehyde injection. Dimethyl sulfoxide (DMSO) 25%+Tween 80 10% in saline was the vehicle used for intraperitoneal administration and carboxymethylcellulose 0.5%, a pharmaceutically acceptable excipient, was used for oral administration. Thirty or 60 min after intraperitoneal or oral administration, respectively, formaldehyde was injected and the nociceptive behavior evaluated as described.

[8] = test system: febrile response induced by endotoxin of E. coli; test: febrile response induced by bacterial endotoxin in rats; assay type: in vivo; settings: 200 mg/kg oral -60 min
Experimental: In this model, endotoxin of E. coli (50 μg/kg) is injected intravenously in rats and the colonic temperature is determined during 6 h.
Carboxymethylcellulose 0.5%, a pharmaceutically acceptable excipient, was used for oral administration. BS (200 mg/kg, oral, −60 min) inhibited the febrile response induced by endotoxin.

[9] = test system: nociceptive response induced by heat; test: nociceptive response induced by heat in the hot plate model; assay type: in vivo; settings: mice; 54° C.; 10, 25 or 50 mg/kg i.p. -30 min; 100 or 200 mg/kg oral -60 min
Experimental: In this model, the mice were exposed to a heat metal surface (54° C.) and the latency for licking the paws or jumping off the plate was determined. Dimethyl sulfoxide (DMSO) 25%+Tween 80 10% in saline was the vehicle used for intraperitoneal administration and carboxymethylcellulose 0.5%, a pharmaceutically acceptable excipient, was used for oral administration. Thirty or 60 min after intraperitoneal or oral administration, respectively, the mice were exposed to the hot plate and the latency for displaying the nociceptive behavior was determined as described.

[10] = test system: nociceptive response induced by formaldehyde; settings: compared with first phase; Blackburn-Munro et al., Eur. J. Pharmacol. 445, 231, 2002; cited from earlier work
[11] = females, Satellite group, n = 5

With `NC(=O)NN=Cc1ccccc1` [BS, benzaldehyde semicarbazone] the “thermal allodynia induced by carrageenan” value [1] was “inhibited”, the fibrovascular tissue formation [2] was “inhibited” and the “Observed signs: general activity score (normal 4)” value (rats; 300 mg/kg, 30' - 9 h) was “General activity (3),”. For the same compound, the “Observed signs: grooming score (normal 0)” value (rats; 300 mg/kg, 30' - 9 h) was “grooming (1)”, the Observed signs (rats; 300 mg/kg, 9 h - 14th day) was “No toxicity signs” and the “Observed signs: ataxia score (normal 0)” value (rats; 2000 mg/kg, 30' - 12 h) was 4. For the same compound, the “Observed signs: cage corner score (normal 0)” value (rats; 2000 mg/kg, 30' - 12 h) was 1, the “Observed signs: piloerection score (normal 0)” value (rats; 2000 mg/kg, 30' - 12 h) was “piloerection (1),” and the “Observed signs: prostration score (normal 0)” value (rats; 2000 mg/kg, 30' - 12 h) was “prostration (3)”. For the same compound, the Observed signs (rats; 2000 mg/kg, from the 2nd day) was “No toxicity signs”, the “category in the Globally Harmonized System for the Classification and Labeling of Chemicals” value (rats; from a death at the highest dose (2.000 mg/kg) in the acute toxicity test) was 5 and the “signs in the acute toxicity test” value (rats; rats, 300 mg/kg oral single dose, reversible after few hours) was “reduction of motor activity and grooming”. The “reversibility of signs of toxicity” value (rats; rats, 2000 mg/kg oral single dose) was “second day”, the “T/M = number of rats treated/number of deaths” value (rats; single oral dose 300 mg/kg) was 5/0 and the “T/M = number of rats treated/number of deaths” value (rats; single oral dose 2000 mg/kg) was 5/1*. For the same compound, the Final body mass [3, 11] was 197.27 ± 14.44^AB, the Initial body mass [3, 11] was 198.10 ± 15.06^A and the Final body mass ([3]; females, dose 100, 28 days, n = 5) was 230.30 ± 15.42^A. The Initial body mass ([3]; females, dose 100, n = 5) was 207.60 ± 12.62^A, the Final body mass ([3]; females, dose 300, 28 days, n = 5) was 208.38 ± 24.28^AB and the Initial body mass ([3]; females, dose 300, n = 5) was 192.30 ± 13.34^A. The Final body mass ([3]; females, dose 500, 28 days, n = 5) was 170.00 ± 17.22^B, the Initial body mass ([3]; females, dose 500, n = 5) was 196.60 ± 8.20^A and the Final body mass ([3]; males, Satellite group, death of an animal during treatment) was 222.57 ± 29.34^B*. The Initial body mass ([3]; males, Satellite group, n = 5) was 197.00 ± 4.51^A, the Final body mass ([3]; males, dose 100, 28 days, n = 5) was 340.20 ± 50.91^A and the Initial body mass ([3]; males, dose 100, n = 5) was 240.87 ± 20.07^A. The Final body mass ([3]; males, dose 300, 28 days, n = 5) was 258.53 ± 25.76^B, the Initial body mass ([3]; males, dose 300, n = 5) was 192.50 ± 8.32^A and the Final body mass ([3]; males, dose 500, 28 days, n = 5) was 240.00 ± 46.65^B. For the same compound, the Initial body mass ([3]; males, dose 500, n = 5) was 225.30 ± 34.72^A, the body weight gain ([3]; rats, higher doses, oral daily 28 days) was “reduced body weight gain” and the “motor activity (time stayed in the rotarod)” value (motor activity) was “did not alter the motor activity”. For the same compound, the “paw edema induced by carrageenan” value [4] was “inhibited”, the “mechanical allodynia induced by carrageenan” value [5] was “inhibited” and the “cell migration induced by carrageenan” value [6] was “inhibited”. The “first phase of the nociceptive response induced by formaldehyde” value ([7]; 50 mg/kg intraperitoneal, only this dose, 0 to 5 min) was “inhibited”, the “second phase of the nociceptive response induced by formaldehyde” value (shortened to “second phase”) ([7]; 10, 25 or 50 mg/kg i.p. or 100 or 200 mg/kg oral, 15 to 30 min) was “markedly inhibited” and the “febrile response induced by endotoxin” value [8] was “inhibited”. For the same compound, the “antinociceptive effect in the hot plate model” value [9] was “did not induce an antinociceptive effect”.
In the case of `NC(=O)N1c2ccccc2C=Cc2ccccc21` [carbamazepine], the “second phase” value [10] is given as “inhibit more effectively the second phase”.
In the case of `Nc1nnc(-c2cccc(Cl)c2Cl)c(N)n1` [lamotrigine], the “second phase” value [10] is given as “inhibit more effectively the second phase”.
For `O=C1NC(=O)C(c2ccccc2)(c2ccccc2)N1` [phenyloin], the “second phase” value [10] is listed as “inhibit more effectively the second phase”.
